Data from patent publication US7230017B2, “Dihydropyridinone derivatives” (Bayer Healthcare AG, priority 2002, dated 2007).

Legend:
[1] = biological target: T1, human neutrophil elastase (HNE) (Homo sapiens, UniProt P08246); assay: In vitro inhibition of HNE using a fluorogenic peptide substrate (continuous read-out signal, 384 MTP assay format); format: biochemical; settings: substrate MeOSuc-Ala-Ala-Pro-Val-AMC, 37° C.
T1 construct: purchased SERVA Electrophoresis GmbH, Heidelberg, Germany #20927.01
T1 sequence (P08246 30-267): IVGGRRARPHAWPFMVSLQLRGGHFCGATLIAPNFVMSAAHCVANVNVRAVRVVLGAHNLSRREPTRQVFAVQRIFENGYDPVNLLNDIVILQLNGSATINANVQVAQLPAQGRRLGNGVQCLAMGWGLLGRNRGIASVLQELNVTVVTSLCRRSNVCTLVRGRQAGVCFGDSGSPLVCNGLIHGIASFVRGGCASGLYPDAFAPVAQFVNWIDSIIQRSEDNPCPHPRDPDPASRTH
Description: I. In Vitro Enzyme Assays of Human Neutrophil Elastase (HNE)
assay buffer: 0.1 M HEPES-NaOH buffer pH 7.4, 0.5 M NaCl, 0.1% (w/v) bovine serum albumin;
suitable concentration (see below) of substrate in assay buffer;
suitable concentration of test compounds diluted with assay buffer from a 10 mM stock solution in DMSO.
The test solution is prepared by mixing 10 μl of test compound dilution, 20 μl of HNE enzyme dilution (final concentration 8–0.4 μU/ml, routinely 2.1 μU/ml) and 20 μl of substrate dilution (final concentration 1 mM–1 μM, routinely 20 μM), respectively. The solution is incubated for 0–2 hrs at 37° C. (routinely one hour). The fluorescence of the liberated AMC due to the enzymatic reaction is measured at 37° C. (TECAN spectra fluor plus plate reader). […] IC50 values are determined by RFU-versus-[I] plots. Km and Km(app.) values are determined by Lineweaver-Burk plots and converted to Ki values by Dixon plots.

[2] = test system: human polymorphonuclear cells (PMNs); assay: In vitro PMN elastolysis assay (3H-elastin); format: cell-based; settings: 4 hours at 37° C.
Description: In Vitro PMN Elastolysis Assay
This assay is used to determine the elastolytic potential of human polymorphonuclear cells (PMNs) and assess the proportion of degradation due to neutrophil elastase [cf. Z. W. She et al., Am. J. Respir. Cell. Mol. Biol. 9, 386–392 (1993)].
Tritiated elastin, in suspension, is coated on to a 96 well plate at 10 μg per well. Test and reference [ZD-0892 (J. Med. Chem. 40, 1876–1885, 3173–3181 (1997), WO 95/21855) and al protease inhibitor (α1PI)] compounds are added to the wells at the appropriate concentrations. Human PMNs are separated from peripheral venous blood of healthy donors and resuspended in culture media. The neutrophils are added to the coated wells at concentrations ranging between 1×10^6 to 1×10^5 cells per well. Porcine pancreatic elastase (1.3 μM) is used as a positive control for the assay, and α1PI (1.2 μM) is used as the positive inhibitor of neutrophil elastase. The cellular control is PMNs without compound at each appropriate cell density. The cells plus compounds are incubated in a humidified incubator at 37° C. for 4 hours. The plates are centrifuged to allow the harvest of cell supernatant only. […] The plates are dried until no liquid is visible in the wells and read in a beta counter for 3 minutes per well. […]
The compounds of this invention are evaluated for their inhibitory activity in this HNE-dependent model of neutrophil elastolysis.

CC1=C(C#N)C(c2ccc(C#N)cc2)C(C(N)=O)C(=O)N1c1cccc(C(F)(F)F)c1 (single isomer, unassigned; (-)) [Example 98, (−)-5-Cyano-4-(4-cyanophenyl)-6-methyl-2-oxo-1-[3-(trifluoromethyl)phenyl]-1,2,3,4-tetrahydro-3-pyridinecarboxamide]
IC50 [1]: 8 nM

CCOC(=O)C1=C(C)N(c2cccc(C(F)(F)F)c2)C(=O)C(C(=O)OCC)C1c1ccc(C#N)cc1 (stereo not shown) [Example 1]
IC50 [1]: 30 nM

CCOC(=O)C1=C(C)N(c2cccc(C(F)(F)F)c2)C(=O)C(C(N)=O)C1c1ccc(C#N)cc1 (stereo not shown) [Example 3]
IC50 [1]: 20 nM

CC1=C(C#N)C(c2ccc(C#N)cc2)C(C(N)=O)C(=O)N1c1cccc(C(F)(F)F)c1 (stereo not shown) [Example 7, 5-Cyano-4-(4-cyanophenyl)-6-methyl-2-oxo-1-[3-(trifluoromethyl)phenyl]-1,2,3,4-tetrahydro-3-pyridinecarboxamide]
IC50 [1]: 13 nM

CC1=C(C#N)C(c2ccc(C#N)cc2)C(C(=O)N(C)C)C(=O)N1c1cccc(C(F)(F)F)c1 (stereo not shown) [Example 12, 5-Cyano-4-(4-cyanophenyl)-N,N,6-trimethyl-2-oxo-1-[3-(trifluoromethyl)phenyl]-1,2,3,4-tetrahydro-3-pyridinecarboxamide]
IC50 [1]: 25 nM

CC(=O)C1=C(C)N(c2cccc(C(F)(F)F)c2)C(=O)C(C(=O)N(C)C)C1c1ccc(C#N)cc1 (stereo not shown) [Example 13, 5-Acetyl4-(4-cyanophenyl)-N,N,6-trimethyl-2-oxo-1-[3-(trifluoromethyl)phenyl]-1,2,3,4-tetrahydro-3-pyridinecarboxamide]
IC50 [1]: 25 nM

CCOC(=O)C1=C(C)N(c2cccc(C(F)(F)F)c2)C(=O)C(C(=O)OCC)C1c1cc2cc(C#N)ccc2o1 (stereo not shown) [Example 15, Diethyl 4-(5-cyano-1-benzofuran-2-yl)-6-methyl-2-oxo-1-[3-(trifluoromethyl)phenyl]-1,2,3,4-tetrahydro-3,5-pyridinedicarboxylate]
IC50 [1]: 200 nM

CC1=C(C#N)C(c2ccc(C#N)cc2)C(C(=O)NCCC(=O)O)C(=O)N1c1cccc(C(F)(F)F)c1 (stereo not drawn) [Example 19, N-({5-Cyano-4-(4-cyanophenyl)-6-methyl-2-oxo-1-[3-(trifluoromethyl)phenyl]-1,2,3,4-tetrahydro-3-pyridinyl}carbonyl)-β-alanine]
IC50 [1]: 25 nM

COCCNC(=O)C1C(=O)N(c2cccc(C(F)(F)F)c2)C(C)=C(C#N)C1c1ccc(C#N)cc1 (stereo not shown) [Example 20, 5-Cyano-4-(4-cyanophenyl)-N-(2-methoxyethyl)-6-methyl-2-oxo-1-[3-(trifluoromethyl)phenyl]-1,2,3,4-tetrahydro-3-pyridinecarboxamide]
IC50 [1]: 30 nM

CC1=C(C#N)C(c2ccc(C#N)cc2)C(C(=O)NCCO)C(=O)N1c1cccc(C(F)(F)F)c1 (stereo not shown) [Example 68, 5-Cyano-4-(4-cyanophenyl)-6-methyl-2-oxo-1-[3-(trifluoromethyl)phenyl]-1,2,3,4-tetrahydropyridine-3-carboxylic acid (2-hydroxyethyl)amide]
IC50 [1]: 15 nM

CCNC(=O)C1=C(C)N(c2cccc(C(F)(F)F)c2)C(=O)CC1c1ccc(C#N)cc1 (stereo not shown) [Example 77]
IC50 [1]: 350 nM

COc1ccc(C(=O)N[C@H](C(=O)N2CCC[C@H]2C(=O)N[C@H](C(=O)C(F)(F)F)C(C)C)C(C)C)cc1 [ZD-0892]
IC50 ([2]; n=2 different donors at 3.6×10^5 cells per well, read-out: IC50 (mean±s.e.m.)): 45.5 ± 7.75 nM

α1PI: al protease inhibitor (α1PI), used as the positive inhibitor of neutrophil elastase
inhibition of elastolysis (mean±s.e.m.) ([2]; at 1.2 μM, n=3 different donors at 3.6×10^5 cells per well): 83.46±3.97%
